# Measurements reported in PubChem BioAssay AID488890 (Southern Research Specialized Biocontainment Screening …, 2010).
# Inconclusive results are not listed. Calls of active or inactive are those of the source. How the calls were made is not given here.
# Test system: Mycobacterium tuberculosis non-replicating, growth inhibition
# Experiment: growth inhibition of non-replicating M. tuberculosis (AID 488890)
row,SMILES,IC50
1,Cc1cc(C)nc(Sc2ncnc(N)c2[N+](=O)[O-])n1,10.7 µM (inactive)
2,Clc1ccc2c(N3CCCC3)ccnc2c1,16.4 µM (inactive)
3,COc1ccc(-c2cc(O)cc(O)c2)cc1,6.15 µM
4,CC(C)Cn1c(N)c(C(=O)COC(=O)c2ccc([N+](=O)[O-])o2)c(=O)n(C)c1=O,2.86 µM
5,CC(=O)OCCNc1cc(Sc2nc3ccccc3[nH]2)c2nonc2c1[N+](=O)[O-],2.41 µM
6,CCS(=O)(=O)c1ncc(Cl)c(C(=O)Nc2ccc(C)cc2)n1,4.64 µM
7,COc1ccc(N/N=C/c2c(C(=O)O)ccc3ccccc23)cc1,< 0.1 µM
8,O=C(Oc1ccc(/C=N/O)cc1)c1ccccc1Cl,12.4 µM (inactive)
9,Cc1cc(-c2n[nH]c(=S)n2/N=C/C(Br)=C/c2ccccc2)n[nH]1,19.8 µM (inactive)
10,CCOc1ccc(NC(=O)COc2ccc3c(c2)OCO3)cc1,10.6 µM (inactive)
11,C=CCn1c(NC(=O)c2ccccc2)nc2ccccc21,21.6 µM (inactive)
12,COC(=O)[C@H](CC(C)C)NC(=O)NCCC1=CCCCC1,12.8 µM (inactive)
13,CC(C)(C)c1ccc(Cn2c(=N)n(CC(O)c3ccco3)c3ccccc32)cc1 (stereo not drawn),7.36 µM
14,Cc1nnc(SCCC(=O)Nc2ccc(Cl)cc2)o1,39.2 µM (inactive)
15,O=C(c1nnc(-c2ccc(Cl)cc2)o1)C1CCCC1,11.4 µM (inactive)
16,CCn1c(NC(=O)C2CCCCC2)nc2ccccc21,4.53 µM
17,O=C(NC1CCCC1)c1cc(-c2cccs2)on1,5.66 µM
18,O=C1N/C(=N\c2ccccn2)SC1Cc1ccc(Cl)cc1 (stereo not drawn),3.91 µM
19,Cc1cc(C)n(-c2ccc(C(=O)Oc3ccc4c(c3)OCO4)cc2)n1,11.9 µM (inactive)
20,c1ccc(Cc2nnc(-c3ccccc3)o2)cc1,0.19 µM
21,CCNc1nc(NC(C)(C)C)nc(N2CCCCC2)n1,9.76 µM
22,O=C(Nc1nnc(C2CC2)o1)c1ccc(S(=O)(=O)N2CCCCC2)cc1,29.8 µM (inactive)
23,O=C(CCC1CCCC1)NCc1ccccn1,3.4 µM
24,Cc1cccnc1NC(=O)C1COc2ccccc2O1 (stereo not drawn),29.6 µM (inactive)

row,SMILES,IC50
1,O=[N+]([O-])c1cccnc1N/N=C/c1ccccc1O,2.87 µM
2,O=C(COC(=O)CCN1C(=O)/C(=C\C=C\c2ccccc2)SC1=S)Nc1cc(F)ccc1F,13.9 µM (inactive)
3,CC(C)c1ccc(N2C(=O)CC(Sc3ncn[nH]3)C2=O)cc1 (stereo not drawn),11.2 µM (inactive)
4,CN1C/C(=C/c2cccnc2)C(=O)/C(=C/c2cccnc2)C1,23.5 µM (inactive)
5,COc1ccc(NC(=O)c2cnc(SC)nc2)cc1,28.9 µM (inactive)
6,CCOc1ccc(C(=O)Nc2ccc(N3CCN(C)CC3)cc2)cc1Br,30.5 µM (inactive)
7,CCCc1cc(NCc2ccccn2)n2nc(C)c(-c3ccccc3)c2n1,2.23 µM
8,CCOC(=O)C1(CCc2ccccc2)CCN(Cc2ccccn2)CC1,13.6 µM (inactive)
9,CCS(=O)(=O)c1c([N+](=O)[O-])ncn1C,19.5 µM (inactive)
10,O=C(Nc1ccccc1F)c1ccc([N+](=O)[O-])s1,0.78 µM
11,CCOc1cccc2cc(C(=O)Nc3nccs3)c(=O)oc12,2.26 µM
12,CCn1nnc(NC(=O)c2ccc(-c3ccc(Cl)cc3)o2)n1,3.07 µM
13,O=S1(=O)N=C(N/N=C/C=C/c2ccccc2)c2ccccc21,8.69 µM
14,O=C(O)c1ccc(NS(=O)(=O)/C=C/c2ccccc2)cc1O,3.11 µM
15,COc1ccc(-c2nnn(Cc3ccccc3)n2)cc1,12.4 µM (inactive)
16,CC(NC(=O)c1cccc(F)c1)C1CC2CCC1C2 (stereo not drawn),0.16 µM
17,O=C(CCNc1cccc(Cl)c1)c1ccco1,5.4 µM
18,COc1ccc(NC(=O)c2cc([N+](=O)[O-])ccc2O)cc1,7.71 µM
19,CCOC(=O)C(=NCCOC)NNc1cc(Cl)ccc1Cl,30.4 µM (inactive)
20,O=C(NCCC1=CCCCC1)c1ccc(F)cc1,1.36 µM
21,CCC(C)c1ccc(O)c(/C=N/O)c1 (stereo not drawn),2.43 µM
22,Cc1ccsc1/C=N/NC(=O)c1ccncc1,2.05 µM
23,CCOC(=O)c1c(C)nc2cc(C)ccn12,5.9 µM
24,O=C(NCc1cccs1)c1ccc(Br)o1,3.37 µM
